From patent publication US4238566A (priority 1980, dated 1980)

Tests used:
Format in all cases: biochemical
[1] = target: T1, Bovine milk xanthine oxidase (E.C. 1.2.3.2.), XO concentrate by prior art 1 (Horecker and Heppel 1955), E280/E450 ratio 6.1 (Bos taurus, UniProt P80457); test: Kinetic parameters (Km, Vmax, KI) of XO concentrate prepared by prior art method of Horecker and Heppel; settings: for Vmax with hypoxanthine / Vmax with xanthine: XO by prior art 1
T1 construct: Bovine milk XO was purified using three different methods; from tissue; host or cells: bovine milk (purified in-house by the method of Horecker and Heppel 1955)
Method: (§1) Bovine milk XO was purified using three different methods and the purified XO enzyme concentrate preparation from each method was assayed for its kinetic parameters.
(§2) The first method used was that of Horecker and Heppel (Methods in Enzymology, Vol. 2, pp. 482-485, 1955). […] The second method was that of Waud et al. (Arch. Biochem. and Biophys., Vol. 169, pp. 695-701, 1975). […] The third method was that described above for the preparation of the XO concentrate of this invention.
(§3) The concentration of the substrate was varied over a gradient of initial concentrations of one to nine millimolar. […] Three replicates of each assay were performed at each concentration of substrate. Buffer pH was monitored constantly and the percent oxygen saturation was maintained at approximately 75%. Lineweaver-Burk and Hanes plots were then constructed from the collected data.
(§4) Lineweaver-Burk and Hanes plots were constructed from the data and both Km and Vmax determined therefrom.
(§5) Experimental conditions for this part of the study were similar to the preceding experiments. […] From the collected data, Lineweaver-Burk plots for competitive inhibition were constructed.

[2] = target: T2, Bovine milk xanthine oxidase (E.C. 1.2.3.2.), XO concentrate of this invention, E280/E450 ratio 2.0 to 4.1 (Bos taurus, UniProt P80457); test: Kinetic parameters (Km, Vmax, KI) of XO concentrate of this invention; settings: for Vmax with hypoxanthine / Vmax with xanthine: XO of this invention
T2 construct: Bovine milk XO was purified using three different methods; from tissue; host or cells: bovine milk (purified in-house by the method of the invention)
Method: as §1, §2, §3, §4, §5

[3] = target: T3, Bovine milk xanthine oxidase (E.C. 1.2.3.2.), XO concentrate by prior art 2 (Waud et al. 1975), E280/E450 ratio 4.8 (Bos taurus, UniProt P80457); test: Kinetic parameters (Km, Vmax, KI) of XO concentrate prepared by prior art method of Waud et al.; settings: for Vmax with hypoxanthine / Vmax with xanthine: XO by prior art 2
T3 construct: Bovine milk XO was purified using three different methods; from tissue; host or cells: bovine milk (purified in-house by the method of Waud et al. 1975)
Method: as §1, §2, §3, §4, §5

T3 sequence (P80457 whole entry): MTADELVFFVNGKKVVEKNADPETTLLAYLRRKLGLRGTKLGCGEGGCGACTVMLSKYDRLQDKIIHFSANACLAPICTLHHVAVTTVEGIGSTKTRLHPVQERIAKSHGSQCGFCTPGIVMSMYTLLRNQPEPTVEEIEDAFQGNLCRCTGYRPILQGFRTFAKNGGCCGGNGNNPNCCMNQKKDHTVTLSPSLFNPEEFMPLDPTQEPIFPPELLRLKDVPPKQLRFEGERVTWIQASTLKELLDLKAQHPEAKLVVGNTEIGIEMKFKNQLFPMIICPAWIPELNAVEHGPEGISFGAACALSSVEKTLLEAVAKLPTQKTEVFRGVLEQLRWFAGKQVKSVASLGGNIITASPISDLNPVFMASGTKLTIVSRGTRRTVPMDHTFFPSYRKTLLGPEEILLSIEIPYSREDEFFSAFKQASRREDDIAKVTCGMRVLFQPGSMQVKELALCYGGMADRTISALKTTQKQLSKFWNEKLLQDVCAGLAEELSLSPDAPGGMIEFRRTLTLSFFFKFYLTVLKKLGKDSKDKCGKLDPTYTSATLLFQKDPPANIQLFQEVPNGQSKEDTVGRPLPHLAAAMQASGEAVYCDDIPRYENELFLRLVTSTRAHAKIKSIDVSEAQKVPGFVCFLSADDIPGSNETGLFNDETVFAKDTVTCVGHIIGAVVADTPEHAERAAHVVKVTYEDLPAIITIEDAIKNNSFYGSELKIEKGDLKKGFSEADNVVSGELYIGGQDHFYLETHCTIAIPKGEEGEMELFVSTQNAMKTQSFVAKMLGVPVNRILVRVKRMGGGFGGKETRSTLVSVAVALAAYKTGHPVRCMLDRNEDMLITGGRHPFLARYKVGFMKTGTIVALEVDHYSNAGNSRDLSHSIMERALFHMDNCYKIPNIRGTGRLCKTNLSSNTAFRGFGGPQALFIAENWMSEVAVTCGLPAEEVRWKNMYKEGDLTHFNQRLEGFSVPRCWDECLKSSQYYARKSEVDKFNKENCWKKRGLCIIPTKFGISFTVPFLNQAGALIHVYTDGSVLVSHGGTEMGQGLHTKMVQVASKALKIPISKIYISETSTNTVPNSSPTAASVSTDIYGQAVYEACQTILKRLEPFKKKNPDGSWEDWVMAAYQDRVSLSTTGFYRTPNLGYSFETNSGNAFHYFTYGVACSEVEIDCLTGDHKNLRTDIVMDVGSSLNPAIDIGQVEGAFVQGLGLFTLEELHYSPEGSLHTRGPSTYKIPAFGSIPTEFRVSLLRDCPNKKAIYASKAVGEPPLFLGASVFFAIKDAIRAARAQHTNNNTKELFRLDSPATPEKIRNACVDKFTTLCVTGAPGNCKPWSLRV
T2 sequence (P80457 whole entry): as above
T1 sequence (P80457 whole entry): as above

Nc1nc2ncc(CNc3ccc(C(=O)N[C@@H](CCC(=O)O)C(=O)O)cc3)nc2c(=O)[nH]1 [folic acid]
Ki [1]: 1790 nM
Ki ([2]; read-out: KI with folic acid): 1150 nM
Ki [3]: 1690 nM

O=c1[nH]cnc2nc[nH]c12 [hypoxanthine]
Vmax with hypoxanthine ([1]; pH 8.3): 1.25 I.U.
Vmax with hypoxanthine ([1]; pH 8.7): 0.448 I.U.
Vmax with hypoxanthine ([2]; pH 8.3): 1.47 I.U.
Vmax with hypoxanthine ([2]; pH 8.7): 0.666 I.U.
Vmax with hypoxanthine ([3]; pH 8.3): 1.31 I.U
Vmax with hypoxanthine ([3]; pH 8.7): 0.463 I.U.

O=c1[nH]c(=O)c2[nH]cnc2[nH]1 [xanthine]
Vmax with xanthine ([1]; pH 8.3): 2.0 I.U.
Vmax with xanthine ([1]; pH 8.7): 2.03 I.U.
Vmax with xanthine ([2]; pH 8.3): 4.76 I.U.
Vmax with xanthine ([2]; pH 8.7): 3.125 I.U.
Vmax with xanthine ([3]; pH 8.3): 2.8 I.U.
Vmax with xanthine ([3]; pH 8.7): 2.16 I.U.
